This passage reports IC50 results from patent US20130060022A1, “Compounds useful for treating neurodegenerative disorders” (priority 2011, published 2013).

As a reminder, the IC50 is the point on the concentration scale where inhibition reaches its midpoint.

Read-outs that look alike come from different tables or passages of the source.

What all share (format): cell-based
What all share (details): Homo sapiens, 5 hours at 37° C., 1% DMSO

For assay [1], the system named is Aβ-40. Kind of assay: Aβ-40 level in conditioned media of 2B7 cells (MSD 3-PLEX ELISA). The protocol:
(§1) Assays were conducted to determine the ability of a Compound of Formula I to modulate […], and Aβ-38.
(§2) Human (6E10) Ab 3-PLEX ELISA kits were purchased from Meso Scale Discovery Labs, 9328 Gaither Road, Gaithersburg, Md. 20877 (Catalog Number K15148E-3). Plates with capture antibodies were blocked for 1-2 hours at room temperature with 150 μL of the manufactures blocking reagent.
(§3) Cultured 2B7 cells in 96 well plate with 250 μL of media per well until confluent;
(§4) Prepared serial dilutions of compounds in DMSO at 100× the final desired concentration;
(§5) Washed wells with 2B7 cells 1× with 250 μL of media;
(§6) Diluted DMSO stocks 1:100 into media:
(§7) Added 250 μL of media containing compounds (1% DMSO) to wells with 2B7 cells for 5 hours at 37° C.
(§8) Diluted conditioned media: 1 part media with 1% DMSO and 1 part blocking buffer;
(§9) 150 μL of the 250 μL of conditioned media were used.
(§10) Seven point standard curve samples were prepared that contained Aβ-42, Aβ-40, and Aβ-38. The highest concentration of Aβ-42 and Aβ-38 was […] and the highest concentration of Aβ-40 was 10,000 pg/mL. Subsequent serial dilutions were 1:3 and the final composition of each sample was 1 part blocking buffer and 1 part cell medium containing 1% DMSO.
(§11) Blocked plates are washed 5× with MSD wash buffer with a plate washer;
(§12) 25 μL of detection antibody and blocker G reagent in MSD blocking solution was added;
(§13) 25 μL of samples (1 part conditioned media containing 1% DMSO and 1 part MSD blocking buffer) were then added;
(§14) Plates were incubated overnight at 4 degrees C. or 2 hours at room temperature.
(§15) Washed wells 5× with MSD wash buffer;
(§16) Added 150 μL 2×MSD read buffer;
(§17) Aβ peptide levels for each peptide were calculated from the standard curve using the MSD software provided with the MSD 2400 Imager. Percent vehicle values for each compound dosage were then calculated and fit to a 4 parameter curve generating IC50 values.
A general note: ELISA stands for enzyme-linked immunosorbent assay.

Assay [2] concerns Aβ-38. Put plainly: Aβ-38 level in conditioned media of 2B7 cells (MSD 3-PLEX ELISA). The protocol: as §1, §2, §3, §4, §5, §6, §7, §8, §9, §10, §11, §12, §13, §14, §15, §16, §17
Assay [3] deals with Aβ-42. Kind of assay: Aβ-42 level in conditioned media of 2B7 cells (MSD 3-PLEX ELISA). The protocol: as §1, §2, §3, §4, §5, §6, §7, §8, §9, §10, §11, §12, §13, §14, §15, §16, §17
The mark [4] stands for this setting: inflection of dose-response curve, read-out: Aβ 40 DR IC50 Inflection.
The mark [5] stands for this setting: inflection of dose-response curve, read-out: Aβ 42 DR IC50 Inflection.
Where [6] appears, read: inflection of dose-response curve, read-out: Aβ 38 DR IC50 Inflection.

For `CC(C)[C@@H](OC(=O)N1CCC1)[C@H]1C[C@@H](C)[C@H]2[C@H](O1)[C@H](O)[C@@]1(C)[C@@H]3CC[C@H]4C(C)(C)[C@@H](OC(=O)N5CC[C@H](C(=O)O)C5)CC[C@@]45C[C@@]35CC[C@]21C` [Compound I-1], the IC50 in assay [1] (setting [4]) was above 5000 nM; in assay [1] (read-out: Aβ 40 IC50), above 5000 nM; in assay [2] (read-out: Aβ 38 IC50) it was 1000 to 5000 nM; in assay [3] (setting [5]), 1000 to 5000 nM; in assay [3] (read-out: Aβ 42 IC50), 1000 to 5000 nM.
For the molecule `CC(C)[C@@H](OC(=O)N1CCC1)[C@H]1C[C@@H](C)[C@H]2[C@H](O1)[C@H](O)[C@@]1(C)[C@@H]3CC[C@H]4C(C)(C)[C@@H](OC(=O)N[C@H]5CCNC5=O)CC[C@@]45C[C@@]35CC[C@]21C` [Compound I-2], the IC50 in assay [1] (read-out: Aβ 40 IC50) was above 5000 nM; in assay [2] (read-out: Aβ 38 IC50) it was 501 to 1000 nM; in assay [3] (read-out: Aβ 42 IC50), 100 to 500 nM.
`CC(C)[C@@H](OC(=O)N1CCC1)[C@H]1C[C@@H](C)[C@H]2[C@H](O1)[C@H](O)[C@@]1(C)[C@@H]3CC[C@H]4C(C)(C)[C@@H](OC(=O)N[C@@H]5CCCNC5=O)CC[C@@]45C[C@@]35CC[C@]21C` [Compound I-3]: the IC50 is above 5000 nM in assay [1] (setting [4]); above 5000 nM in assay [1] (read-out: Aβ 40 IC50); 1000 to 5000 nM in assay [2] (setting [6]); 501 to 1000 nM in assay [2] (read-out: Aβ 38 IC50); 100 to 500 nM in assay [3] (setting [5]); 100 to 500 nM in assay [3] (read-out: Aβ 42 IC50).
`CC(C)[C@@H](OC(=O)N1CCC1)[C@H]1C[C@@H](C)[C@H]2[C@H](O1)[C@H](O)[C@@]1(C)[C@@H]3CC[C@H]4C(C)(C)[C@@H](OC(=O)N[C@@H](C)C(=O)O)CC[C@@]45C[C@@]35CC[C@]21C` [Compound I-4]: the IC50 was above 5000 nM in assay [1] (read-out: Aβ 40 IC50), 501 to 1000 nM in assay [2] (setting [6]), 1000 to 5000 nM in assay [2] (read-out: Aβ 38 IC50) and 501 to 1000 nM in assay [3] (read-out: Aβ 42 IC50).
Consider `CC(C)[C@@H](OC(=O)N1CCC1)[C@H]1C[C@@H](C)[C@H]2[C@H](O1)[C@H](O)[C@@]1(C)[C@@H]3CC[C@H]4C(C)(C)[C@@H](OC(=O)N[C@@H]5CCNC5=O)CC[C@@]45C[C@@]35CC[C@]21C` [Compound I-5], for which the IC50 was above 5000 nM in assay [1] (setting [4]); above 5000 nM in assay [1] (read-out: Aβ 40 IC50); 100 to 500 nM in assay [2] (setting [6]); 100 to 500 nM in assay [2] (read-out: Aβ 38 IC50); 100 to 500 nM in assay [3] (read-out: Aβ 42 IC50).
`CC(C)[C@@H](OC(=O)N1CCC1)[C@H]1C[C@@H](C)[C@H]2[C@H](O1)[C@H](O)[C@@]1(C)[C@@H]3CC[C@H]4C(C)(C)[C@@H](OC(=O)N[C@H]5CCCNC5=O)CC[C@@]45C[C@@]35CC[C@]21C` [Compound I-6]: the half-maximal inhibitory concentration (IC50) in assay [1] (setting [4]) was above 5000 nM; in assay [1] (read-out: Aβ 40 IC50), above 5000 nM; in assay [2] (setting [6]), 100 to 500 nM; in assay [2] (read-out: Aβ 38 IC50), 100 to 500 nM; in assay [3] (read-out: Aβ 42 IC50) it was 100 to 500 nM.
For the molecule `CC(C)[C@@H](OC(=O)N1CCC1)[C@H]1C[C@@H](C)[C@H]2[C@H](O1)[C@H](O)[C@@]1(C)[C@@H]3CC[C@H]4C(C)(C)[C@@H](OC(=O)NCCC(=O)O)CC[C@@]45C[C@@]35CC[C@]21C` [Compound I-8], the IC50 in assay [1] (read-out: Aβ 40 IC50) is above 5000 nM; in assay [2] (setting [6]), 501 to 1000 nM; in assay [2] (read-out: Aβ 38 IC50), 501 to 1000 nM; in assay [3] (setting [5]), 501 to 1000 nM; in assay [3] (read-out: Aβ 42 IC50), 501 to 1000 nM.
As to `CC(C)[C@@H](OC(=O)N1CCC1)[C@H]1C[C@@H](C)[C@H]2[C@H](O1)[C@H](O)[C@@]1(C)[C@@H]3CC[C@H]4C(C)(C)[C@@H](OC(=O)N5CC(CNS(=O)(=O)C(F)(F)F)C5)CC[C@@]45C[C@@]35CC[C@]21C` [Compound I-9], the IC50 in assay [2] (read-out: Aβ 38 IC50) and in assay [3] (read-out: Aβ 42 IC50) was 1000 to 5000 nM in each case.
`CC(C)[C@@H](OC(=O)N1CCC1)[C@H]1C[C@@H](C)[C@H]2[C@H](O1)[C@H](O)[C@@]1(C)[C@@H]3CC[C@H]4C(C)(C)[C@@H](OC(=O)N5CC[C@@H](C(=O)O)C5)CC[C@@]45C[C@@]35CC[C@]21C` [Compound I-10]: the concentration for half-maximal inhibition (IC50) in assay [1] (read-out: Aβ 40 IC50) is above 5000 nM; in assay [2] (read-out: Aβ 38 IC50) it was 1000 to 5000 nM; in assay [3] (read-out: Aβ 42 IC50), 1000 to 5000 nM.
As for `CC(C)[C@@H](OC(=O)N1CCC1)[C@H]1C[C@@H](C)[C@H]2[C@H](O1)[C@H](O)[C@@]1(C)[C@@H]3CC[C@H]4C(C)(C)[C@@H](OC(=O)N(C)C5CN(C)C5)CC[C@@]45C[C@@]35CC[C@]21C` [Compound I-11], the IC50 in assay [1] (setting [4]) was above 5000 nM; in assay [1] (read-out: Aβ 40 IC50) it was above 5000 nM; in assay [2] (setting [6]), 100 to 500 nM; in assay [2] (read-out: Aβ 38 IC50), 100 to 500 nM; in assay [3] (setting [5]), below 100 nM; in assay [3] (read-out: Aβ 42 IC50) it was below 100 nM.
With `COCCN1CCN(C(=O)O[C@H]2CC[C@]34C[C@]35CC[C@]3(C)[C@@H]6[C@H](O[C@@H]([C@H](OC(=O)N7CCC7)C(C)C)C[C@H]6C)[C@H](O)[C@@]3(C)[C@@H]5CC[C@H]4C2(C)C)CC1` [Compound I-12], the IC50 was above 5000 nM in assay [1] (read-out: Aβ 40 IC50), 1000 to 5000 nM in assay [2] (read-out: Aβ 38 IC50) and 501 to 1000 nM in assay [3] (read-out: Aβ 42 IC50).
`CC(C)[C@@H](OC(=O)N1CCC1)[C@H]1C[C@@H](C)[C@H]2[C@H](O1)[C@H](O)[C@@]1(C)[C@@H]3CC[C@H]4C(C)(C)[C@@H](OC(=O)N5CCNC(C(F)(F)F)C5)CC[C@@]45C[C@@]35CC[C@]21C` (stereo partly drawn) [Compound I-13]: the IC50 in assay [2] (read-out: Aβ 38 IC50) and in assay [3] (read-out: Aβ 42 IC50) was 1000 to 5000 nM each time.
Consider `CC(C)[C@@H](OC(=O)N1CCC1)[C@H]1C[C@@H](C)[C@H]2[C@H](O1)[C@H](O)[C@@]1(C)[C@@H]3CC[C@H]4C(C)(C)[C@@H](OC(=O)N5CCN(C6COC6)CC5)CC[C@@]45C[C@@]35CC[C@]21C` [Compound I-14], for which the 50% inhibitory concentration (IC50) in assay [2] (read-out: Aβ 38 IC50) and in assay [3] (read-out: Aβ 42 IC50) was 501 to 1000 nM each time.
As for `CC(C)[C@@H](OC(=O)N1CCC1)[C@H]1C[C@@H](C)[C@H]2[C@H](O1)[C@H](O)[C@@]1(C)[C@@H]3CC[C@H]4C(C)(C)[C@@H](OC(=O)N(C)CC(=O)O)CC[C@@]45C[C@@]35CC[C@]21C` [Compound I-15], the IC50 in assay [1] (read-out: Aβ 40 IC50) was above 5000 nM; in assay [2] (read-out: Aβ 38 IC50), 501 to 1000 nM; in assay [3] (read-out: Aβ 42 IC50), 100 to 500 nM.
